# Measurements taken from ChEMBL document CHEMBL5247589, “Natural occurrence, bioactivity, and biosynthesis of triene-ansamycins” (Eur J Med Chem, 2022).
# Columns and labels:
# L5178Y [1] = assay: Cytotoxicity against mouse L5178Y; type: toxicity, cell-based
# Pichia kudriavzevii = assay: Antifungal activity against Pichia kudriavzevii IFO 0590 assessed as inhibition of fungal growth incubated for 72 hrs by broth dilution method; type: functional
# Saccharomyces cerevisiae = assay: Antifungal activity against Saccharomyces cerevisiae IFO 0304 assessed as inhibition of fungal growth incubated for 72 hrs by broth dilution method; type: functional
# Aspergillus japonicus = assay: Antifungal activity against Aspergillus japonicus IAM 2016 assessed as inhibition of fungal growth incubated for 72 hrs by broth dilution method; type: functional
# Rhizopus delemar = assay: Antifungal activity against Rhizopus delemar IAM 6015 assessed as inhibition of fungal growth incubated for 72 hrs by broth dilution method; type: functional
# Rhizomucor pusillus = assay: Antifungal activity against Rhizomucor pusillus IAM 6122 assessed as inhibition of fungal growth incubated for 72 hrs by broth dilution method; type: functional
# L5178Y [2] = assay: Cytotoxicity against mouse L5178Y cells; type: functional
# [3] = Toxicity in CDF1 mouse allografted with mouse […] cells assessed as lethal dose administered for 6 days ,ip; type: cell-based; details: in vivo, time 6 day
# Cyberlindnera jadinii = assay: Antifungal activity against Cyberlindnera jadinii IFO 0396 assessed as inhibition of fungal growth incubated for 72 hrs by broth dilution method; type: functional; details: Williopsis jadinii
# Penicillium chrysogenum = assay: Antifungal activity against Penicillium chrysogenum1AM 7106 assessed as inhibition of fungal growth incubated for 72 hrs by broth dilution method; type: functional; details: 1AM 7106
# HepG2 [4] = assay: Antiproliferative activity against human HepG2 assessed as cell growth inhibition incubated for 48 hrs by Cell Counting Kit-8 assay; type: functional, cell-based; details: HepG2, 48 h
# [5] = Antiproliferative activity against human U-87 MG assessed as cell growth inhibition incubated for 48 hrs by Cell Counting Kit-8 assay; type: functional, cell-based, U-87MG ATCC
# PC-3 [6] = assay: Antiproliferative activity against human PC-3 assessed as cell growth inhibition incubated for 48 hrs by Cell Counting Kit-8 assay; type: functional, cell-based; details: PC-3, 48 h
# HeLa = assay: Antitumor activity against human HeLa cells; type: functional, cell-based
# HCT-116 = assay: Antitumor activity against human HCT116 cells; type: functional, cell-based
# HL-60 [7] = assay: Antitumor activity against human HL60 cells; type: functional, cell-based
# B16 = assay: Antitumor activity against mouse B-16 cells; type: functional, cell-based
# U-937 = assay: Antitumor activity against human U937 cells; type: functional, cell-based
# HT-29 = assay: Antitumor activity against human HT29 cells; type: functional, cell-based
# THP-1 = assay: Antitumor activity against human THP1 cells; type: functional, cell-based
# HepG2 [8] = assay: Antiproliferative activity against human HepG2 cells assessed as cell viability incubated for 48 hrs by Cell Counting Kit-8 assay; type: functional, cell-based; details: HepG2, 48 h
# PC-3 [9] = assay: Antiproliferative activity against human PC3 cells assessed as cell viability incubated for 48 hrs by Cell Counting Kit-8 assay; type: functional, cell-based; details: PC-3, 48 h
# HepG2 [10] = assay: Cytotoxicity against human HepG2 cells incubated for 48 hrs by CCK-8 assay; type: functional, cell-based; details: HepG2, 48 h
# [11] = Antiproliferative activity against human U87 cells overexpressing miR-9 assessed as cell viability incubated for 48 hrs by Cell Counting Kit-8 assay; type: functional, cell-based, U-87MG ATCC; details: U-87 MG
# PC-3 [12] = assay: Cytotoxicity against human PC-3 cells incubated for 48 hrs by CCK-8 assay; type: functional, cell-based; details: PC-3, 48 h
# Capan-2 = assay: Antitumor activity against human Capan-2 cells incubated for 48 to 72 hrs by MTS Assay; type: functional, cell-based
# [13] = Inhibition of NO production in LPS stimulated mouse BV-2 cells measured after 24 hrs; type: functional, cell-based; details: BV-2, 24 h
# BXPC-3 = assay: Antitumor activity against human BXPC-3 cells incubated for 48 to 72 hrs by MTS Assay; type: functional, cell-based
# PANC-1 = assay: Antitumor activity against human PANC-1 cells incubated for 48 to 72 hrs by MTS Assay; type: functional, cell-based
# A549 [14] = assay: Antitumor activity against human A549 cells incubated for 72 hrs by MTT assay; type: functional, cell-based; details: A549, 72 h
# A549 [15] = assay: Cytotoxicity against human A549 cells incubated for 72 hrs by MTT assay; type: functional, cell-based; details: A549, 72 h
# K562 [16] = assay: Cytotoxicity against human K562 cells incubated for 24 hrs by CCK-8 assay; type: functional, cell-based; details: K562, 24 h
# MCF7 = assay: Antitumor activity against human MCF7 cells incubated for 72 hrs by MTT assay; type: functional, cell-based; details: MCF7, 72 h
# K562 [17] = assay: Antitumor activity against human K562 cells incubated for 24 hrs by CCK-8 assay; type: functional, cell-based; details: K562, 24 h
# PC-3 [18] = assay: Antitumor activity against human PC-3 cells incubated for 72 hrs by SRB calorimetric assay; type: functional, cell-based; details: PC-3, 72 h
# HepG2 [19] = assay: Antitumor activity against human HepG2 cells incubated for 72 hrs by SRB calorimetric assay; type: functional, cell-based; details: HepG2, 72 h
# [20] = Cytotoxicity against human WI-38 cells assessed as cell growth incubated for 1 day by MTT assay; type: toxicity, cell-based
# HL-60 [21] = assay: Induction of apoptosis in human HL-60 cells assessed as effective dose; type: functional; details: read-out: ED50 (the source's name)
# HL-60 [22] = assay: Antitumor activity against human HL60 cells assessed as cell growth incubated for 1 day by MTT assay; type: functional, cell-based; details: HL-60, 24 h
# Pyricularia oryzae = assay: Antimicrobial activity against Pyricularia oryzae by agar dilution method; type: functional
smiles,measurement,setting,value
CO[C@H]1/C=C/C=C/C=C/C[C@H](OC(=O)[C@@H](C)NC(=O)C2CCCCC2)[C@H](C)[C@@H](O)/C(C)=C\CCC2=CC(=O)C=C(NC(=O)C1)C2=O,MIC,L5178Y [1],1.25 µM
same,MIC,Pichia kudriavzevii,4 µg/mL
same,MIC,Saccharomyces cerevisiae,4 µg/mL
same,MIC,Aspergillus japonicus,4 µg/mL
same,MIC,Rhizopus delemar,4 µg/mL
same,MIC,Rhizomucor pusillus,4 µg/mL
same,MIC,L5178Y [2],0.11 µg/mL
same,LD50 at 144 h,[3],56 mg/kg
same,MIC,Cyberlindnera jadinii,4 µg/mL
same,MIC,Penicillium chrysogenum,4 µg/mL
CO[C@@H]1CC(=O)Nc2c(O)c3cc4c2[C@H]1[C@@H](/C=C/C=C/C[C@H](OC(=O)[C@@H](C)NC(=O)C1CCCCC1)[C@H](C)[C@@H](O)/C(C)=C\CC3)O4,IC50,HepG2 [4],610 nM
same,IC50,[5],7010 nM
same,IC50,PC-3 [6],2210 nM
CO[C@H]1/C=C/C=C/C=C/C[C@H](OC(=O)C2(NC(=O)C3=CCCCC3)CC2)[C@H](C)[C@@H](O)/C(C)=C\CCc2cc3c(c(c2O)NC(=O)C1)SCC(=O)N3,IC50,HeLa,50 nM
same,IC50,HCT-116,50 nM
same,IC50,HL-60 [7],50 nM
same,IC50,B16,50 nM
same,IC50,U-937,50 nM
same,IC50,HT-29,50 nM
same,IC50,THP-1,50 nM
CO[C@H]1/C=C/C=C/C=C/C[C@H](OC(=O)[C@@H](C)NC(=O)C2CCCCC2)[C@H](C)[C@@H](O[C@@H]2O[C@H](CO)[C@@H](O)[C@H](O)[C@H]2O)/C(C)=C\CCc2cc(O)cc(c2O)NC(=O)C1,IC50,HepG2 [8],≥ 2020 nM
same,IC50,PC-3 [9],≥ 2020 nM
same,IC50,HepG2 [10],2200 nM
same,IC50,[11],≥ 2020 nM
same,IC50,PC-3 [12],4380 nM
CO[C@H]1/C=C/C=C/C=C/C[C@H](O)[C@H](C)[C@@H](OC(=O)[C@@H](C)NC(=O)C2CCCCC2)/C(C)=C\CCc2cc(O)cc(c2)NC(=O)C1,IC50,Capan-2,> 10000 nM
same,EC50,[13],292 nM
same,IC50,BXPC-3,> 10000 nM
same,IC50,PANC-1,> 10000 nM
CO[C@H]1/C=C/C=C/C=C/C[C@H](OC(=O)[C@@H](C)NC(C)=O)[C@H](C)[C@@H](O)/C(C)=C\CCc2cc(O)cc(c2)NC(=O)C1,IC50,A549 [14],> 10000 nM
same,IC50,A549 [15],15000 nM
same,IC50,K562 [16],23000 nM
same,IC50,MCF7,> 10000 nM
same,IC50,K562 [17],> 10000 nM
CCCC(=O)N[C@H](C)C(=O)O[C@H]1C/C=C/C=C/C=C/[C@H](OC)CC(=O)Nc2cc(O)cc(c2)CC/C=C(/C)[C@H](O)[C@H]1C,IC50,Capan-2,2040 nM
same,IC50,PC-3 [18],2040 nM
same,IC50,HepG2 [19],2040 nM
same,IC50,BXPC-3,2040 nM
same,IC50,PANC-1,2040 nM
CO[C@H]1/C=C/C=C/C=C/C[C@H](O)[C@H](C)[C@@H](O)/C(C)=C\CCc2cc(O)cc(c2)NC(=O)C1,IC50,A549 [14],> 10000 nM
same,IC50,MCF7,> 10000 nM
same,IC50,K562 [17],> 10000 nM
CO[C@H]1/C=C/C=C/C=C/C[C@H](OC(=O)C2(NC(=O)C3=CCCCC3)CC2)[C@H](C)[C@@H](O)/C(C)=C\CCc2cc(O)cc(c2O)NC(=O)C1,IC50 at 1 day,[20],7.7 nM
same,EC50,HL-60 [21],7700 nM
same,IC50,HL-60 [22],7.7 nM
same,MIC,Pyricularia oryzae,12.5 µg/mL
CO[C@H]1/C=C/C=C/C=C/C[C@H](OC(=O)C2(NC(=O)C3CCCCC3)CC2)[C@H](C)[C@@H](O)/C(C)=C\CCc2cc(O)cc(c2O)NC(=O)C1,IC50 at 1 day,[20],7.7 nM
same,EC50,HL-60 [21],7700 nM
same,IC50,HL-60 [22],7.7 nM
